Measured values taken from patent US20240217983A1, “GPR119 AGONISTS” (Kallyope, Inc., priority 2021, published 2024).
pEC50: −log10 of the molar value.

Target: T1, human GPR119 (hGPR119) (Homo sapiens, UniProt Q8TDV5)
T1 construct: expressed in transfected cells
T1 sequence (Q8TDV5 1-335): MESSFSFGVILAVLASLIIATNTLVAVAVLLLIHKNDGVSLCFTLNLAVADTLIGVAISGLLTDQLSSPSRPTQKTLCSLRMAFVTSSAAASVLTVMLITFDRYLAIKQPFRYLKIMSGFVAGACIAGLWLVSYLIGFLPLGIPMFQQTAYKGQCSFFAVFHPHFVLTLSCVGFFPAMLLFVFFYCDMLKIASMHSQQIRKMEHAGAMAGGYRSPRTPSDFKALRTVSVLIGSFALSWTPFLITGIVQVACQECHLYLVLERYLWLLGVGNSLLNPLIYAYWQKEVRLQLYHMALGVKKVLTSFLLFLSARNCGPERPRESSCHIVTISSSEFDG
Test: cAMP accumulation assay (Cisbio cAMP Gs dynamic HTRF kit) in CHO-K1 cells stably expressing human GPR119
Assay type: cell-based
Details: 4-parameter fit; for Emax: 1 h, % activity normalized to Max and Min controls; for pEC50: 60 minutes at 37° C.
Procedure: CHO-K1 cells stably expressing human GPR119 (hGPR119) were prepared by transfection of a GPR119-carrying plasmid using Lipofectamine 2000 (following manufacturer instructions). A stable cell line was established using the limiting dilution method with geneticine selection. Assay-ready frozen (ARF) cells were prepared and used throughout the study.
The assay was performed in a 384-well plate format using the cAMP Gs dynamic assay kit from Cisbio. ARF cells expressing hGPR119 were thawed, washed and then resuspended in cAMP stimulation buffer at a cell density of 1.1×10^6 cells/mL. Cells were plated at a density of ˜10,000 cells/well (9 μL/well). Dose response curves for the tested compounds were prepared in a cAMP stimulation buffer, containing 0.1% Tween 80 at 4 fold the final concentration. The compounds were then transferred to the cell plates using BRAVO (3 μL/well) and the plates were incubated for 60 minutes at 37° C./5% CO2. Detection buffer (10 μL, prepared as described in the cAMP Gs dynamic kit) were added to each well, and the plates were incubated at ambient temperature for 1 hr.
RT-FRET was measured using a ClarioSTAR plate reader, calculating the ratio between emissions at 665 nm and 620 nm (HTRF ratio). The HTRF ratio for positive (Max) and negative (Min) controls were used to normalize HTRF data and generate values for % activity. EC50 and Max activity values were determined using a standard 4-parameter fit.

Row | SMILES | Emax | pEC50
1 | O=C(Cc1ccc(OCCCC2CCN(c3ncc(Cl)cn3)CC2)cc1F)N1C[C@H]2CN(C[C@H](O)[C@@H](O)[C@H](O)[C@H](O)CO)[C@H]2C1 [Example 37, 2-(4-(3-(1-(5-chloropyrimidin-2-yl)piperidin-4-yl)propoxy)-2-fluorophenyl)-1-((1R,5R)-6-((2S,3R,4R,5R)-2,3,4,5,6-pentahydroxyhexyl)-3,6-diazabicyclo[3.2.0]heptan-3-yl)ethan-1-one] | 100 to 130% | 6.00 to 7.00
2 | O=C(Cc1ccc(OCCCC2CCN(c3ncc(Cl)cn3)CC2)cc1F)N1C[C@@H]2CN(C[C@H](O)[C@@H](O)[C@H](O)[C@H](O)CO)C[C@@H]21 [Example 39, 2-(4-(3-(1-(5-chloropyrimidin-2-yl)piperidin-4-yl)propoxy)-2-fluorophenyl)-1-((1S,5R)-3-((2S,3R,4R,5R)-2,3,4,5,6-pentahydroxyhexyl)-3,6-diazabicyclo[3.2.0]heptan-6-yl)ethan-1-one] | 100 to 130% | ≥ 7.00
3 | O=C(Cc1ccc(OCCCC2CCN(c3ncc(Cl)cn3)CC2)cc1F)N1CCC12CN(C[C@H](O)[C@@H](O)[C@H](O)[C@H](O)CO)C2 [Example 41, 2-(4-(3-(1-(5-chloropyrimidin-2-yl)piperidin-4-yl)propoxy)-2-fluorophenyl)-1-(6-((2S,3R,4R,5R)-2,3,4,5,6-pentahydroxyhexyl)-1,6-diazaspiro[3.3]heptan-1-yl)ethan-1-one] | 100 to 130% | < 5.00
4 | O=C(Cc1ccc(OCCCC2CCN(c3ncc(Cl)cn3)CC2)cc1F)N1CCC2(CCN(C[C@H](O)[C@H](O)[C@H](O)CO)C2)C1 (stereo partly drawn) [Example 42, 2-(4-(3-(1-(5-chloropyrimidin-2-yl)piperidin-4-yl)propoxy)-2-fluorophenyl)-1-(7-((2S,3S,4R)-2,3,4,5-tetrahydroxypentyl)-2,7-diazaspiro[4.4]nonan-2-yl)ethan-1-one] | 100 to 130% | ≥ 7.00
5 | O=C(Cc1ccc(OCCCC2CCN(c3ncc(Cl)cn3)CC2)cc1F)N1C[C@H]2CN(C[C@H](O)[C@H](O)[C@H](O)CO)C[C@H]2C1 [Example 44, 2-(4-(3-(1-(5-chloropyrimidin-2-yl)piperidin-4-yl)propoxy)-2-fluorophenyl)-1-((3aR,6aS)-5-((2S,3S,4R)-2,3,4,5-tetrahydroxypentyl)hexahydropyrrolo[3,4-c]pyrrol-2(1H)-yl)ethan-1-one] | 100 to 130% | ≥ 7.00
6 | O=C(Cc1ccc(OCCCC2CCN(c3ncc(Cl)cn3)CC2)cc1F)N1C[C@H]2CN(C[C@H](O)[C@@H](O)[C@H](O)[C@H](O)CO)C[C@H]2C1 [Example 45, 2-(4-(3-(1-(5-chloropyrimidin-2-yl)piperidin-4-yl)propoxy)-2-fluorophenyl)-1-((3aR,6aS)-5-((2S,3R,4R,5R)-2,3,4,5,6-pentahydroxyhexyl)hexahydropyrrolo[3,4-c]pyrrol-2(1H)-yl)ethan-1-one] | 100 to 130% | ≥ 7.00
7 | O=C(Cc1ccc(OCCCC2CCN(c3ncc(Cl)cn3)CC2)cc1F)N1C[C@H]2C[C@@H]1CN2C[C@H](O)[C@H](O)[C@H](O)CO [Example 46, 2-(4-(3-(1-(5-chloropyrimidin-2-yl)piperidin-4-yl)propoxy)-2-fluorophenyl)-1-((1R,4R)-5-((2S,3S,4R)-2,3,4,5-tetrahydroxypentyl)-2,5-diazabicyclo[2.2.1]heptan-2-yl)ethan-1-one] | ≥ 130% | ≥ 7.00
8 | O=C(Cc1ccc(OCCCC2CCN(c3ncc(Cl)cn3)CC2)cc1F)N1C[C@H]2C[C@@H]1CN2C[C@H](O)[C@@H](O)[C@H](O)[C@H](O)CO [Example 47, 2-(4-(3-(1-(5-chloropyrimidin-2-yl)piperidin-4-yl)propoxy)-2-fluorophenyl)-1-((1R,4R)-5-((2S,3R,4R,5R)-2,3,4,5,6-pentahydroxyhexyl)-2,5-diazabicyclo[2.2.1]heptan-2-yl)ethan-1-one] | 100 to 130% | ≥ 7.00
9 | O=C(Cc1ccc(OCCCC2CCN(c3ncc(Cl)cn3)CC2)cc1F)N1CC2CC(C1)N2C[C@H](O)[C@H](O)[C@H](O)CO [Example 48, 2-(4-(3-(1-(5-chloropyrimidin-2-yl)piperidin-4-yl)propoxy)-2-fluorophenyl)-1-(6-((2S,3S,4R)-2,3,4,5-tetrahydroxypentyl)-3,6-diazabicyclo[3.1.1]heptan-3-yl)ethan-1-one] | ≥ 130% | ≥ 7.00
10 | O=C(Cc1ccc(OCCCC2CCN(c3ncc(Cl)cn3)CC2)cc1F)N1CC2CC(C1)N2C[C@H](O)[C@@H](O)[C@H](O)[C@H](O)CO [Example 49, 2-(4-(3-(1-(5-chloropyrimidin-2-yl)piperidin-4-yl)propoxy)-2-fluorophenyl)-1-(6-((2S,3R,4R,5R)-2,3,4,5,6-pentahydroxyhexyl)-3,6-diazabicyclo[3.1.1]heptan-3-yl)ethan-1-one] | 100 to 130% | ≥ 7.00
11 | O=C(Cc1ccc(OCCCC2CCN(c3ncc(Cl)cn3)CC2)cc1F)N1CCCN(C[C@H](O)[C@H](O)[C@H](O)CO)CC1 [Example 50, 2-(4-(3-(1-(5-chloropyrimidin-2-yl)piperidin-4-yl)propoxy)-2-fluorophenyl)-1-(4-((2S,3S,4R)-2,3,4,5-tetrahydroxypentyl)-1,4-diazepan-1-yl)ethan-1-one] | 100 to 130% | ≥ 7.00
12 | O=C(Cc1ccc(OCCCC2CCN(c3ncc(Cl)cn3)CC2)cc1F)N1CC2CCC1CN2C[C@H](O)[C@@H](O)[C@H](O)[C@H](O)CO (stereo partly drawn) [Example 53, 2-(4-(3-(1-(5-chloropyrimidin-2-yl)piperidin-4-yl)propoxy)-2-fluorophenyl)-1-(5-((2S,3R,4R,5R)-2,3,4,5,6-pentahydroxyhexyl)-2,5-diazabicyclo[2.2.2]octan-2-yl)ethan-1-one] | 100 to 130% | ≥ 7.00

Continued, values first:

Row | Emax | pEC50 | SMILES
13 | 100 to 130% | 6.00 to 7.00 | O=C(Cc1ccc(OCCCC2CCN(c3ncc(Cl)cn3)CC2)cc1F)N1C[C@H]2CN(C[C@H](O)[C@H](O)[C@H](O)CO)[C@H]2C1 [Example 36, 2-(4-(3-(1-(5-chloropyrimidin-2-yl)piperidin-4-yl)propoxy)-2-fluorophenyl)-1-((1R,5R)-6-((2S,3S,4R)-2,3,4,5-tetrahydroxypentyl)-3,6-diazabicyclo[3.2.0]heptan-3-yl)ethan-1-one]
14 | 100 to 130% | ≥ 7.00 | O=C(Cc1ccc(OCCCC2CCN(c3ncc(Cl)cn3)CC2)cc1F)N1C[C@@H]2CN(C[C@H](O)[C@H](O)[C@H](O)CO)C[C@@H]21 [Example 38, 2-(4-(3-(1-(5-chloropyrimidin-2-yl)piperidin-4-yl)propoxy)-2-fluorophenyl)-1-((1S,5R)-3-((2S,3S,4R)-2,3,4,5-tetrahydroxypentyl)-3,6-diazabicyclo[3.2.0]heptan-6-yl)ethan-1-one]
15 | 100 to 130% | 6.00 to 7.00 | O=C(Cc1ccc(OCCCC2CCN(c3ncc(Cl)cn3)CC2)cc1F)N1CCC12CN(C[C@H](O)[C@H](O)[C@H](O)CO)C2 [Example 40, 2-(4-(3-(1-(5-chloropyrimidin-2-yl)piperidin-4-yl)propoxy)-2-fluorophenyl)-1-(6-((2S,3S,4R)-2,3,4,5-tetrahydroxypentyl)-1,6-diazaspiro[3.3]heptan-1-yl)ethan-1-one]
16 | 100 to 130% | ≥ 7.00 | O=C(Cc1ccc(OCCCC2CCN(c3ncc(Cl)cn3)CC2)cc1F)N1CCC2(CCN(C[C@H](O)[C@@H](O)[C@H](O)[C@H](O)CO)C2)C1 (stereo partly drawn) [Example 43, 2-(4-(3-(1-(5-chloropyrimidin-2-yl)piperidin-4-yl)propoxy)-2-fluorophenyl)-1-(7-((2S,3R,4R,5R)-2,3,4,5,6-pentahydroxyhexyl)-2,7-diazaspiro[4.4]nonan-2-yl)ethan-1-one]
17 | 100 to 130% | ≥ 7.00 | O=C(Cc1ccc(OCCCC2CCN(c3ncc(Cl)cn3)CC2)cc1F)N1CCCN(C[C@H](O)[C@@H](O)[C@H](O)[C@H](O)CO)CC1 [Example 51, 2-(4-(3-(1-(5-chloropyrimidin-2-yl)piperidin-4-yl)propoxy)-2-fluorophenyl)-1-(4-((2S,3R,4R,5R)-2,3,4,5,6-pentahydroxyhexyl)-1,4-diazepan-1-yl)ethan-1-one]
18 | ≥ 130% | ≥ 7.00 | O=C(Cc1ccc(OCCCC2CCN(c3ncc(Cl)cn3)CC2)cc1F)N1CC2CCC1CN2C[C@H](O)[C@H](O)[C@H](O)CO (stereo partly drawn) [Example 52, 2-(4-(3-(1-(5-chloropyrimidin-2-yl)piperidin-4-yl)propoxy)-2-fluorophenyl)-1-(5-((2S,3S,4R)-2,3,4,5-tetrahydroxypentyl)-2,5-diazabicyclo[2.2.2]octan-2-yl)ethan-1-one]
